Test results reported in ChEMBL document CHEMBL3217542, “Chiral diaminocyclohexane coupling polyphenols: A new class of anticancer agents” (Medchemcomm, 2012).
Activity calls are given as the source filed them. The calls are words filed in the database; no cut-off is given here.

What was measured:
MCF7 [1] = assay: Cytotoxicity against human MCF7 cells after 2 days by SRB assay; format: functional, cell-based; conditions: MCF7, 48 h
[2] = Cytotoxicity against human fibroblasts after 2 days by SRB assay; format: cell-based; conditions: Fibroblast, 48 h
MCF7 [3] = assay: Selectivity index, ratio of IC50 for human fibroblasts to IC50 for human MCF7 cells
[4] = Cytotoxicity against human HBT-174 cells after 2 days by SRB assay; format: functional, cell-based; conditions: HBT-174, 48 h
NCI-H460 = assay: Cytotoxicity against human NCI-H460 cells after 2 days by SRB assay; format: functional, cell-based; conditions: NCI-H460, 48 h
[5] = Selectivity index, ratio of IC50 for human fibroblasts to IC50 for human HBT-174 cells
MDA-MB-453 [6] = assay: Cytotoxicity against human MDA-MB-453 cells after 2 days by SRB assay; format: functional, cell-based; conditions: MDA-MB-453, 48 h
MDA-MB-231 = assay: Cytotoxicity against human MDA-MB-231 cells after 2 days by SRB assay; format: functional, cell-based; conditions: MDA-MB-231, 48 h
MDA-MB-468 = assay: Cytotoxicity against human MDA-MB-468 cells after 2 days by SRB assay; format: functional, cell-based; conditions: MDA-MB-468, 48 h
HBT-174 = assay: Inhibition of colony formation in human HBT-174 cells assessed as decrease in colony size and number of colony at 0.5 to 5 uM treated every 3 days for 10 days by SRB staining; format: functional, cell-based
MCF7 [7] = assay: Reduction of cyclin-D1 gene expression in human MCF7 cells at 5 uM after 24 hrs by RT-PCR analysis relative to control; format: functional; design: scale not given: the % may be the effect or the level left
MCF7 [8] = assay: Reduction of p53 gene expression in human MCF7 cells at 5 uM after 24 hrs by RT-PCR analysis relative to control; format: functional; design: scale not given: the % may be the effect or the level left
MCF7 [9] = assay: Reduction of Bcl-2 gene expression in human MCF7 cells at 5 uM after 24 hrs by RT-PCR analysis relative to control; format: functional; design: scale not given: the % may be the effect or the level left
MCF7 [10] = assay: Reduction of Bcl-xL gene expression in human MCF7 cells at 5 uM after 24 hrs by RT-PCR analysis relative to control; format: functional; design: scale not given: the % may be the effect or the level left
MDA-MB-453 [11] = assay: Antimammosphere formation activity in human MDA-MB-453 cells assessed as ALDH positive cells at 1 uM after 4 days relative to control; format: functional
MDA-MB-453 [12] = assay: Antimammosphere formation activity in human MDA-MB-453 cells assessed as ALDH positive cells at 5 uM after 4 days relative to control; format: functional
MDA-MB-453 [13] = assay: Antimammosphere formation activity in human MDA-MB-453 cells assessed as ALDH positive cells at 10 uM after 4 days relative to control; format: functional

Q: Which IC50 (MCF7 [1]) does the source give for `O=C(O)c1ccc(O)c(CN[C@@H]2CCCC[C@H]2NCc2cc(C(=O)O)ccc2O)c1` here?
A: 8.4 µM

Q: And the IC50 [2]?
A: 108 µM

Q: What about the “Ratio IC50” value (MCF7 [3]) of the same compound?
A: 12.8

Q: What does the source list for `Oc1ccc(O)c(CN[C@@H]2CCCC[C@H]2NCc2cc(O)ccc2O)c1`?
A: IC50 (MCF7 [1]): 5.2 µM; IC50 [2]: 75 µM; Ratio IC50 (MCF7 [3]): 14.4; IC50 [4]: 8 µM; IC50 (NCI-H460): 2.4 µM; Ratio IC50 [5]: 9.4; IC50 (MDA-MB-453 [6]): 5.2 µM; IC50 (MDA-MB-231): 3.8 µM; IC50 (MDA-MB-468): 5.9 µM

Q: With `Oc1ccc(CN[C@@H]2CCCC[C@H]2NCc2ccc(O)c(O)c2)cc1O` as the compound, how does the IC50 (MCF7 [1]) read?
A: 2.5 µM

Q: And the IC50 [2]?
A: 32 µM

Q: And the “Ratio IC50” value (MCF7 [3])?
A: 12.8

Q: And the IC50 [4]?
A: 3.3 µM

Q: And the IC50 (NCI-H460)?
A: 0.9 µM

Q: What about the “Ratio IC50” value [5] of the same compound?
A: 9.7

Q: And the IC50 (MDA-MB-453 [6])?
A: 1.8 µM

Q: What about the IC50 (MDA-MB-231) of the same compound?
A: 1.4 µM

Q: And the IC50 (MDA-MB-468)?
A: 1.2 µM

Q: For `Cc1ccc(O)c(CN[C@@H]2CCCC[C@H]2NCc2cc(C)ccc2O)c1`, which IC50 (MCF7 [1]) is on record?
A: 3.6 µM

Q: What about the IC50 [2] of the same compound?
A: 37 µM

Q: What about the “Ratio IC50” value (MCF7 [3]) of the same compound?
A: 10.3

Q: Which results are given for `Oc1cccc(CN[C@@H]2CCCC[C@H]2NCc2cccc(O)c2O)c1O`?
A: IC50 (MCF7 [1]): 4.8 µM; IC50 [2]: 106 µM; Ratio IC50 (MCF7 [3]): 22.1; IC50 [4]: 6.8 µM; IC50 (NCI-H460): 1.8 µM; Ratio IC50 [5]: 15.6; IC50 (MDA-MB-453 [6]): 4.6 µM; IC50 (MDA-MB-231): 2.4 µM; IC50 (MDA-MB-468): 3.3 µM; inhibition (HBT-174): Active; Activity (MCF7 [7]): 24.8%; Activity (MCF7 [8]): 33.1%; Activity (MCF7 [9]): 15.6%; Activity (MCF7 [10]): 22.2%; Activity (MDA-MB-453 [11]): 90%; Activity (MDA-MB-453 [12]): 25%; Activity (MDA-MB-453 [13]): <5%

Q: What does the source list for `Oc1ccc(CN[C@@H]2CCCC[C@H]2NCc2ccc(O)cc2O)c(O)c1`?
A: IC50 (MCF7 [1]): 6 µM; IC50 [2]: 82 µM; Ratio IC50 (MCF7 [3]): 13.7; IC50 [4]: 8.2 µM; IC50 (NCI-H460): 2.2 µM; Ratio IC50 [5]: 10; IC50 (MDA-MB-453 [6]): 4.5 µM; IC50 (MDA-MB-231): 4 µM; IC50 (MDA-MB-468): 4.4 µM
